Numbers after ± are expanded uncertainties.
Details: Liquid, Vibrating wire viscometry

## C=C(F)C(F)(F)F [2,3,3,3-tetrafluoro-1-propene]
243.16 K, 99 kPa
  viscosity: 0.2892 ± 0.0074 mPa·s
243.16 K, 1000 kPa
  viscosity: 0.2913 ± 0.0074 mPa·s
243.16 K, 3000 kPa
  viscosity: 0.2982 ± 0.0075 mPa·s
243.16 K, 5000 kPa
  viscosity: 0.3049 ± 0.0077 mPa·s
243.16 K, 10000 kPa
  viscosity: 0.3212 ± 0.008 mPa·s
243.16 K, 15000 kPa
  viscosity: 0.3397 ± 0.0083 mPa·s
243.16 K, 20000 kPa
  viscosity: 0.3572 ± 0.0086 mPa·s
243.16 K, 25000 kPa
  viscosity: 0.3748 ± 0.0089 mPa·s
243.16 K, 30000 kPa
  viscosity: 0.3927 ± 0.0093 mPa·s
253.16 K, 151 kPa
  viscosity: 0.2554 ± 0.0068 mPa·s
253.16 K, 1000 kPa
  viscosity: 0.258 ± 0.0068 mPa·s
253.16 K, 3000 kPa
  viscosity: 0.2638 ± 0.0069 mPa·s
253.16 K, 5000 kPa
  viscosity: 0.2708 ± 0.007 mPa·s
253.16 K, 10000 kPa
  viscosity: 0.2877 ± 0.0073 mPa·s
253.16 K, 15000 kPa
  viscosity: 0.3038 ± 0.0076 mPa·s
253.16 K, 20000 kPa
  viscosity: 0.3201 ± 0.0079 mPa·s
253.16 K, 25000 kPa
  viscosity: 0.3362 ± 0.0082 mPa·s
253.16 K, 30000 kPa
  viscosity: 0.3517 ± 0.0085 mPa·s
263.16 K, 222 kPa
  viscosity: 0.2265 ± 0.0063 mPa·s
263.16 K, 1000 kPa
  viscosity: 0.229 ± 0.0063 mPa·s
263.16 K, 3000 kPa
  viscosity: 0.2355 ± 0.0064 mPa·s
263.16 K, 5000 kPa
  viscosity: 0.242 ± 0.0065 mPa·s
263.16 K, 10000 kPa
  viscosity: 0.2581 ± 0.0068 mPa·s
263.16 K, 15000 kPa
  viscosity: 0.2731 ± 0.0071 mPa·s
263.16 K, 20000 kPa
  viscosity: 0.2894 ± 0.0074 mPa·s
263.16 K, 25000 kPa
  viscosity: 0.3035 ± 0.0076 mPa·s
263.16 K, 30000 kPa
  viscosity: 0.3178 ± 0.0079 mPa·s
273.15 K, 316 kPa
  viscosity: 0.2019 ± 0.0059 mPa·s
273.15 K, 1000 kPa
  viscosity: 0.2033 ± 0.0059 mPa·s
273.15 K, 3000 kPa
  viscosity: 0.21 ± 0.006 mPa·s
273.15 K, 5000 kPa
  viscosity: 0.2162 ± 0.0061 mPa·s
273.15 K, 10000 kPa
  viscosity: 0.2313 ± 0.0064 mPa·s
273.15 K, 15000 kPa
  viscosity: 0.2457 ± 0.0066 mPa·s
273.15 K, 20000 kPa
  viscosity: 0.2601 ± 0.0069 mPa·s
273.15 K, 25000 kPa
  viscosity: 0.2744 ± 0.0071 mPa·s
273.15 K, 30000 kPa
  viscosity: 0.2874 ± 0.0073 mPa·s
283.14 K, 438 kPa
  viscosity: 0.1796 ± 0.0055 mPa·s
283.14 K, 1000 kPa
  viscosity: 0.1815 ± 0.0055 mPa·s
283.14 K, 3000 kPa
  viscosity: 0.1873 ± 0.0056 mPa·s
283.14 K, 5000 kPa
  viscosity: 0.194 ± 0.0057 mPa·s
283.14 K, 10000 kPa
  viscosity: 0.2079 ± 0.006 mPa·s
283.14 K, 15000 kPa
  viscosity: 0.2222 ± 0.0062 mPa·s
283.14 K, 20000 kPa
  viscosity: 0.2356 ± 0.0064 mPa·s
283.14 K, 25000 kPa
  viscosity: 0.2487 ± 0.0067 mPa·s
283.14 K, 30000 kPa
  viscosity: 0.262 ± 0.0069 mPa·s
293.15 K, 592 kPa
  viscosity: 0.1612 ± 0.0053 mPa·s
293.15 K, 1000 kPa
  viscosity: 0.1636 ± 0.0053 mPa·s
293.15 K, 3000 kPa
  viscosity: 0.169 ± 0.0054 mPa·s
293.15 K, 5000 kPa
  viscosity: 0.1755 ± 0.0055 mPa·s
293.15 K, 10000 kPa
  viscosity: 0.1885 ± 0.0057 mPa·s
293.15 K, 15000 kPa
  viscosity: 0.2018 ± 0.0059 mPa·s
293.15 K, 20000 kPa
  viscosity: 0.2152 ± 0.0061 mPa·s
293.15 K, 25000 kPa
  viscosity: 0.2287 ± 0.0063 mPa·s
293.15 K, 30000 kPa
  viscosity: 0.2414 ± 0.0065 mPa·s
303.15 K, 784 kPa
  viscosity: 0.1425 ± 0.005 mPa·s
303.15 K, 1000 kPa
  viscosity: 0.1434 ± 0.005 mPa·s
303.15 K, 3000 kPa
  viscosity: 0.149 ± 0.0051 mPa·s
303.15 K, 5000 kPa
  viscosity: 0.1554 ± 0.0051 mPa·s
303.15 K, 10000 kPa
  viscosity: 0.1696 ± 0.0054 mPa·s
303.15 K, 15000 kPa
  viscosity: 0.1834 ± 0.0056 mPa·s
303.15 K, 20000 kPa
  viscosity: 0.1965 ± 0.0058 mPa·s
303.15 K, 25000 kPa
  viscosity: 0.2092 ± 0.006 mPa·s
303.15 K, 30000 kPa
  viscosity: 0.2215 ± 0.0062 mPa·s
313.14 K, 1019 kPa
  viscosity: 0.1259 ± 0.0047 mPa·s
313.14 K, 3000 kPa
  viscosity: 0.1324 ± 0.0048 mPa·s
313.14 K, 5000 kPa
  viscosity: 0.1392 ± 0.0049 mPa·s
313.14 K, 10000 kPa
  viscosity: 0.1543 ± 0.0051 mPa·s
313.14 K, 15000 kPa
  viscosity: 0.1681 ± 0.0053 mPa·s
313.14 K, 20000 kPa
  viscosity: 0.1808 ± 0.0055 mPa·s
313.14 K, 25000 kPa
  viscosity: 0.1929 ± 0.0057 mPa·s
313.14 K, 30000 kPa
  viscosity: 0.2046 ± 0.0059 mPa·s
323.16 K, 1303 kPa
  viscosity: 0.1103 ± 0.0045 mPa·s
323.16 K, 3000 kPa
  viscosity: 0.1169 ± 0.0046 mPa·s
323.16 K, 5000 kPa
  viscosity: 0.1239 ± 0.0047 mPa·s
323.16 K, 10000 kPa
  viscosity: 0.1396 ± 0.0049 mPa·s
323.16 K, 15000 kPa
  viscosity: 0.1536 ± 0.0051 mPa·s
323.16 K, 20000 kPa
  viscosity: 0.1664 ± 0.0053 mPa·s
323.16 K, 25000 kPa
  viscosity: 0.1783 ± 0.0055 mPa·s
323.16 K, 30000 kPa
  viscosity: 0.1893 ± 0.0057 mPa·s
333.16 K, 1643 kPa
  viscosity: 0.0965 ± 0.0044 mPa·s
333.16 K, 3000 kPa
  viscosity: 0.1031 ± 0.0044 mPa·s
333.16 K, 5000 kPa
  viscosity: 0.1108 ± 0.0045 mPa·s
333.16 K, 10000 kPa
  viscosity: 0.127 ± 0.0047 mPa·s
333.16 K, 15000 kPa
  viscosity: 0.141 ± 0.0049 mPa·s
333.16 K, 20000 kPa
  viscosity: 0.1537 ± 0.0051 mPa·s
333.16 K, 25000 kPa
  viscosity: 0.1656 ± 0.0053 mPa·s
333.16 K, 30000 kPa
  viscosity: 0.1762 ± 0.0055 mPa·s
343.16 K, 2046 kPa
  viscosity: 0.0832 ± 0.0042 mPa·s
343.16 K, 3000 kPa
  viscosity: 0.0885 ± 0.0043 mPa·s
343.16 K, 5000 kPa
  viscosity: 0.0976 ± 0.0044 mPa·s
343.16 K, 10000 kPa
  viscosity: 0.115 ± 0.0046 mPa·s
343.16 K, 15000 kPa
  viscosity: 0.1291 ± 0.0048 mPa·s
343.16 K, 20000 kPa
  viscosity: 0.1417 ± 0.0049 mPa·s
343.16 K, 25000 kPa
  viscosity: 0.1534 ± 0.0051 mPa·s
343.16 K, 30000 kPa
  viscosity: 0.1644 ± 0.0053 mPa·s
353.16 K, 2521 kPa
  viscosity: 0.0685 ± 0.0043 mPa·s
353.16 K, 3000 kPa
  viscosity: 0.0731 ± 0.0042 mPa·s
353.16 K, 5000 kPa
  viscosity: 0.0846 ± 0.0042 mPa·s
353.16 K, 10000 kPa
  viscosity: 0.1035 ± 0.0044 mPa·s
353.16 K, 15000 kPa
  viscosity: 0.1189 ± 0.0046 mPa·s
353.16 K, 20000 kPa
  viscosity: 0.1314 ± 0.0048 mPa·s
353.16 K, 25000 kPa
  viscosity: 0.1424 ± 0.0049 mPa·s
353.16 K, 30000 kPa
  viscosity: 0.1527 ± 0.0051 mPa·s
363.16 K, 3081 kPa
  viscosity: 0.0521 ± 0.0043 mPa·s
363.16 K, 5000 kPa
  viscosity: 0.0732 ± 0.0042 mPa·s
363.16 K, 10000 kPa
  viscosity: 0.093 ± 0.0043 mPa·s
363.16 K, 15000 kPa
  viscosity: 0.109 ± 0.0045 mPa·s
363.16 K, 20000 kPa
  viscosity: 0.1211 ± 0.0047 mPa·s
363.16 K, 25000 kPa
  viscosity: 0.1322 ± 0.0048 mPa·s
363.16 K, 30000 kPa
  viscosity: 0.1429 ± 0.005 mPa·s

Source: the NIST ThermoML archive (doi:10.1016/j.jct.2013.03.013)
